For one compound, inhibition, Activity and IC50 results are on record in ChEMBL document CHEMBL5661979, “Pharmacological inhibition of BMK1 suppresses tumor growth through promyelocytic leukemia protein” (Cancer Cell, 2010).

SMILES strings stand for the structures.

A word on the inhibition: it is the drop in the measured response relative to a control, in per cent. One may read the IC50 as the concentration that inhibits the measured activity by half. Low values mean greater potency in that assay, high ones weaker potency in that assay.

The nature of data set [1]: Inhibition of MAP3K2/MAP3K3 in human HeLa cells lysate at 2 uM pre incubated for 15 mins followed by ADP acyl phosphate probe addition and measured after 10 mins by LC-MS/MS analysis relative to control. To be noted: 25 min, condition cancer.
Data set [2] deals with Ribosomal protein S6 kinase alpha-5 (Homo sapiens, UniProt O75582). Put plainly: Inhibition of MSK1 domain 1 K1 site in human HeLa cells lysate at 2 uM pre incubated for 15 mins followed by ADP acyl phosphate probe addition and measured after 10 mins by LC-MS/MS analysis relative to control. The data set is classed as subcellular. The conditions noted are these: time 25.0 min.

Data set [3] addresses Ephrin type-A receptor 2 (Homo sapiens, UniProt P29317). Put plainly: Inhibition of EphA2 in human HeLa cells lysate at 50 uM pre incubated for 15 mins followed by ATP acyl phosphate probe addition and measured after 10 mins by LC-MS/MS analysis relative to control. Type of data set: subcellular. The conditions noted are these: time 25.0 min.
Data set [4] concerns the target T1, Epidermal growth factor receptor (Homo sapiens, UniProt P00533). The data set is described as follows: Inhibition of EGFR in human HeLa cells lysate at 10 uM pre incubated for 15 mins followed by ATP acyl phosphate probe addition and measured after 10 mins by LC-MS/MS analysis relative to control. Type of data set: subcellular. The conditions noted are these: time 25.0 min.

Data set [5] is described as follows: Toxicity in C57Bl/6 mouse assessed as effect on calcium level at 50 mg/kg, ip for 14 days (reference value: 9.9 mg/dl). Type of data set: organism-based. The conditions noted are these: in vivo, 336 h, time 14 day.
Data set [6] deals with Serine/threonine-protein kinase Nek8 (Homo sapiens) (UniProt Q86SG6). Put plainly: Inhibition of NEK8 in human HeLa cells lysate at 2 uM pre incubated for 15 mins followed by ADP acyl phosphate probe addition and measured after 10 mins by LC-MS/MS analysis relative to control. Type of data set: subcellular. To be noted: time 25.0 min.
Data set [7] deals with SRSF protein kinase 1 (Homo sapiens, UniProt Q96SB4). Put plainly: Inhibition of SRPK1 in human HeLa cells lysate at 10 uM pre incubated for 15 mins followed by ATP acyl phosphate probe addition and measured after 10 mins by LC-MS/MS analysis relative to control. The data set is classed as subcellular. To be noted: time 25.0 min.
Data set [8] concerns the target Dual specificity mitogen-activated protein kinase kinase 4 (Homo sapiens, UniProt P45985). The data set is described as follows: Inhibition of MAP2K4 in human HeLa cells lysate pre incubated for 15 mins followed by ATP acyl phosphate probe addition and measured after 10 mins by LC-MS/MS analysis. Type of data set: subcellular.
In data set [9] the target is Tyrosine-protein kinase JAK1 (Homo sapiens, UniProt P23458). The data set is described as follows: Inhibition of JAK1 domain 2 in human HeLa cells lysate at 10 uM pre incubated for 15 mins followed by ATP acyl phosphate probe addition and measured after 10 mins by LC-MS/MS analysis relative to control. To be noted: time 25.0 min. Type of data set: subcellular.
For data set [10], the target named is T1, Epidermal growth factor receptor. The data set is described as follows: Inhibition of EGFR in human HeLa cells lysate pre incubated for 15 mins followed by ATP acyl phosphate probe addition and measured after 10 mins by LC-MS/MS analysis. The data set is classed as subcellular.
The target of data set [11] is Ribosomal protein S6 kinase alpha-1 (Homo sapiens, UniProt Q15418). The data set is described as follows: Inhibition of RSK1 domain 2 in human HeLa cells lysate at 2 uM pre incubated for 15 mins followed by ATP acyl phosphate probe addition and measured after 10 mins by LC-MS/MS analysis relative to control. The data set is classed as subcellular. To be noted: time 25.0 min.

For data set [12], the target named is T2, Mitogen-activated protein kinase kinase kinase kinase 2 (Homo sapiens) (UniProt Q12851).
T2 sequence (whole entry): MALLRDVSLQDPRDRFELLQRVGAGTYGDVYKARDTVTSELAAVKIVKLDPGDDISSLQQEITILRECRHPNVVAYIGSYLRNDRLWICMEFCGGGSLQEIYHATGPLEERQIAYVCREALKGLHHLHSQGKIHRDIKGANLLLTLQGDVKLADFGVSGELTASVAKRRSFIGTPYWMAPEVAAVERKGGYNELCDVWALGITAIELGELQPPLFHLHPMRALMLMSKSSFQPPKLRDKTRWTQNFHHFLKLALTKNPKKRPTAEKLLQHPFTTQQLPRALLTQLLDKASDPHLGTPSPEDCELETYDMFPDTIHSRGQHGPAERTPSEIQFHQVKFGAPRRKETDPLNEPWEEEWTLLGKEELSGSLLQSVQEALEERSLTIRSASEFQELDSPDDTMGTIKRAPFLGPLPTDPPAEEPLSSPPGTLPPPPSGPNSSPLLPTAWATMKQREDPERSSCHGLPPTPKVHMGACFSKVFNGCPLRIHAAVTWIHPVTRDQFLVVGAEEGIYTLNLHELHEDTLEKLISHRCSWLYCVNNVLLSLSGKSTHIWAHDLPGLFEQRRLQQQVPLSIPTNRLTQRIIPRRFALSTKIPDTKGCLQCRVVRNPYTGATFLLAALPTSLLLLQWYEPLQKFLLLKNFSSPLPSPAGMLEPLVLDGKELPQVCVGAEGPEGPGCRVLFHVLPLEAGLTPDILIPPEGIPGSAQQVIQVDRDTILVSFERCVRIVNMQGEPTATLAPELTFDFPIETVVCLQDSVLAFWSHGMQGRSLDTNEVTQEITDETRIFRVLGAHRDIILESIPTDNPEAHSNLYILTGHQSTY
The data set is described as follows: Inhibition of GCK in human HeLa cells lysate at 2 uM pre incubated for 15 mins followed by ADP acyl phosphate probe addition and measured after 10 mins by LC-MS/MS analysis relative to control. To be noted: time 25.0 min. Type of data set: subcellular.

T1 sequence (P00533 whole entry): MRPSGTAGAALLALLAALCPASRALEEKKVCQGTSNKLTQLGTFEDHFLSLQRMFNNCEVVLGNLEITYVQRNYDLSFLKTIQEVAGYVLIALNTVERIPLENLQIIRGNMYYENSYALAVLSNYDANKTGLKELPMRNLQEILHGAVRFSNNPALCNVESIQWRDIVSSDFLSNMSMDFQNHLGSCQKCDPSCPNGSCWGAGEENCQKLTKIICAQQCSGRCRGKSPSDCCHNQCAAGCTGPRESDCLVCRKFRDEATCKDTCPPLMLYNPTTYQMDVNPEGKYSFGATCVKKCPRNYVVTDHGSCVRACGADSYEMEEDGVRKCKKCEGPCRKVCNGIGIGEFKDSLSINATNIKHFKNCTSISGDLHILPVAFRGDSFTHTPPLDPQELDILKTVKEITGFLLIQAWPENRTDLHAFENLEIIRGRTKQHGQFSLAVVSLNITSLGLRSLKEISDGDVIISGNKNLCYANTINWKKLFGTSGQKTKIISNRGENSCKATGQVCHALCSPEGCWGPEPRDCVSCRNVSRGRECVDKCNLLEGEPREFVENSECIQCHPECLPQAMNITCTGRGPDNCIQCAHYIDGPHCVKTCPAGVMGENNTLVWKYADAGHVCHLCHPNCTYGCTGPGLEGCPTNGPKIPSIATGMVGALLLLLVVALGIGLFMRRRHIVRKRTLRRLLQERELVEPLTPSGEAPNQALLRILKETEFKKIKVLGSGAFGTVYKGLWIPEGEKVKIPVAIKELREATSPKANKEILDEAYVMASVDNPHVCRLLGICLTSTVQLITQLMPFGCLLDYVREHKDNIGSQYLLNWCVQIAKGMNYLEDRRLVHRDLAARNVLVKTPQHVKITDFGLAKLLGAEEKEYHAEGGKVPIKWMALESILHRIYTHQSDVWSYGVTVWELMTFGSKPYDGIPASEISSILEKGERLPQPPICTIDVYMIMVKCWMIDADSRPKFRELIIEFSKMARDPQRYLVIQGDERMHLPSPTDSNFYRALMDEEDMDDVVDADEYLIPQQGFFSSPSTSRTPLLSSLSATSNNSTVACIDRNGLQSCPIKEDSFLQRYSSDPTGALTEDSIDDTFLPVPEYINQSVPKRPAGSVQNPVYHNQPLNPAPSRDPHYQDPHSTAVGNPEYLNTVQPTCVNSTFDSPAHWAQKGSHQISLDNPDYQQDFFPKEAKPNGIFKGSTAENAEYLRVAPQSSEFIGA
Chain of Ribosomal protein S6 kinase alpha-5 (O75582 whole entry, looked up, the tested form may be a part): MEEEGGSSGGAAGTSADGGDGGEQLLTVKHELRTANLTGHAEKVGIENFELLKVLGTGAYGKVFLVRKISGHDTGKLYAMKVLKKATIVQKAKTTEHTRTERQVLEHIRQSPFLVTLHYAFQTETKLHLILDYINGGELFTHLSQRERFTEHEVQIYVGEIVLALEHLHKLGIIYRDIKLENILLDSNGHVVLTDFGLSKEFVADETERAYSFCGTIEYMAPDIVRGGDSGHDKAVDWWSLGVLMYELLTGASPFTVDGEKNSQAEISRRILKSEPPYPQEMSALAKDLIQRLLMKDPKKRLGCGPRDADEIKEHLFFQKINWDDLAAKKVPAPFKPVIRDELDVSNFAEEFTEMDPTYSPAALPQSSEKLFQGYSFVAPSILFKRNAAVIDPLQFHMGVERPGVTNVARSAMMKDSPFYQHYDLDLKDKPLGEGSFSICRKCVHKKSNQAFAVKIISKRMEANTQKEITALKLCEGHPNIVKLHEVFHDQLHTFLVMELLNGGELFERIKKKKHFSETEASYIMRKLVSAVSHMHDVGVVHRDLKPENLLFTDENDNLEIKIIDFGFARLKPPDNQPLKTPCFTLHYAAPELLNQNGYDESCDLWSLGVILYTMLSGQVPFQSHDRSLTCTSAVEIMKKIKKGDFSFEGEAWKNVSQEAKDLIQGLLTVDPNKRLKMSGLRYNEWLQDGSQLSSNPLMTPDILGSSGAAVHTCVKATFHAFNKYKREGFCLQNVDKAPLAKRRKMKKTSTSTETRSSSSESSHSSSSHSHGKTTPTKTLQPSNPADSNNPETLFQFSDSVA
Chain of Serine/threonine-protein kinase Nek8 (Homo sapiens) (Q86SG6 whole entry): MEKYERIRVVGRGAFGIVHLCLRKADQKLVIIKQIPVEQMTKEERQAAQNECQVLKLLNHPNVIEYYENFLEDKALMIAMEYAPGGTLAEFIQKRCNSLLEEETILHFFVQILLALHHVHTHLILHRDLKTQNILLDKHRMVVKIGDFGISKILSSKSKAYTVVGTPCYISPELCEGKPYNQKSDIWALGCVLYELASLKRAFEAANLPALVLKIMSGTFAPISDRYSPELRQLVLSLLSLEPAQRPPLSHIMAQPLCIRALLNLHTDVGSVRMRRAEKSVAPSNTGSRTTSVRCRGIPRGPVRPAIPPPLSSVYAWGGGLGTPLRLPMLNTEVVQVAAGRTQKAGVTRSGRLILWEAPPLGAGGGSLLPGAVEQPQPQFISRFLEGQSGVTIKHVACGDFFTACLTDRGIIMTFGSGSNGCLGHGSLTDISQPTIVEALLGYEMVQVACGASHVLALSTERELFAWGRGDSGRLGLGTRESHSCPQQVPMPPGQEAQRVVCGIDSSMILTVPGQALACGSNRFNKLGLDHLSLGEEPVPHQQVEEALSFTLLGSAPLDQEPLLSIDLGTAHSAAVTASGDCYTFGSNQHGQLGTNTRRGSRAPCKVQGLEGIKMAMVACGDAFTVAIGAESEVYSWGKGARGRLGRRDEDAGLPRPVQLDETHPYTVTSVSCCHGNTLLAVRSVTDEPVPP
Chain of Ephrin type-A receptor 2 (P29317 whole entry): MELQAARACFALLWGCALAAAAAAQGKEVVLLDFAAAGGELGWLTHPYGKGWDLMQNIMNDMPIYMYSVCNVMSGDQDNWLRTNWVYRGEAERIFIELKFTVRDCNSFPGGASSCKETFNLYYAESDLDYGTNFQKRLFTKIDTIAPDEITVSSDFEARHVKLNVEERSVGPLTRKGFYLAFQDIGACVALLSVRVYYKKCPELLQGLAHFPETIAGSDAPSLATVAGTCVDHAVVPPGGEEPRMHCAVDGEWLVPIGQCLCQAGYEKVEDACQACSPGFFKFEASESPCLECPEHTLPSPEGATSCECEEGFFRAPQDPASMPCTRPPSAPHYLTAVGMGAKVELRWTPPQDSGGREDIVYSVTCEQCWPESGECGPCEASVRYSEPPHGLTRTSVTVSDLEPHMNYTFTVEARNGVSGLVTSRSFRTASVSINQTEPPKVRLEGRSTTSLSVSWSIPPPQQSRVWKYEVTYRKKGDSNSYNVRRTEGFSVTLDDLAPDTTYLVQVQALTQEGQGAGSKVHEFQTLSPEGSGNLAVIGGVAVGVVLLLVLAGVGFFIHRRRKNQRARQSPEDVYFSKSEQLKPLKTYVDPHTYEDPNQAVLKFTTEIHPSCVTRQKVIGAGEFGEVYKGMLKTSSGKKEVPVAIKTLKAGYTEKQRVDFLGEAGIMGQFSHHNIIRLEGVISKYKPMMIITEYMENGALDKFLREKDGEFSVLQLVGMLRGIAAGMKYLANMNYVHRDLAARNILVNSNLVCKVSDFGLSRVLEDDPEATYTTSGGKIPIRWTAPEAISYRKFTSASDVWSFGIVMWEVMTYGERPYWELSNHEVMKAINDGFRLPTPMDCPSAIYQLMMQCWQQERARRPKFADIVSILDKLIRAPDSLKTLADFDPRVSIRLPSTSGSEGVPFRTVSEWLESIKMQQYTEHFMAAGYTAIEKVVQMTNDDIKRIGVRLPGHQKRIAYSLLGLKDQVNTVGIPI
Chain of SRSF protein kinase 1 (Q96SB4 whole entry): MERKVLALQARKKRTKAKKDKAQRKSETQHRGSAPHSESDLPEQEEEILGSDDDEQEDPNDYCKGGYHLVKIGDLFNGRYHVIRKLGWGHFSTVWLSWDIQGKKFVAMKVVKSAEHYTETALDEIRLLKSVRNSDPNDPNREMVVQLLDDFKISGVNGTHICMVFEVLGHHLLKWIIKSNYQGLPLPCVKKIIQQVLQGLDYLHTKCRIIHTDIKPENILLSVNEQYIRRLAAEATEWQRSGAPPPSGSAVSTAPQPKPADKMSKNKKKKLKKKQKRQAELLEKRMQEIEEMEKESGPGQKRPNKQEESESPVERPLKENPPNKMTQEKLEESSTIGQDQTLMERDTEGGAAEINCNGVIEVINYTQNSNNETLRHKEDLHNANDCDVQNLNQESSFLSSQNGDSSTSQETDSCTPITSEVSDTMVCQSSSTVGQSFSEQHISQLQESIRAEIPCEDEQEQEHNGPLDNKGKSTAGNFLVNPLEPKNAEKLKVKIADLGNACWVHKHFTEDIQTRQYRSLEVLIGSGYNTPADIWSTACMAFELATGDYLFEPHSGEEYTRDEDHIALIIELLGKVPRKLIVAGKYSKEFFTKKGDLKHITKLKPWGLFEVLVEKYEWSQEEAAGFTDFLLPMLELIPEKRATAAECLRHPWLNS
Chain of Dual specificity mitogen-activated protein kinase kinase 4 (P45985 whole entry, the tested form may be a part): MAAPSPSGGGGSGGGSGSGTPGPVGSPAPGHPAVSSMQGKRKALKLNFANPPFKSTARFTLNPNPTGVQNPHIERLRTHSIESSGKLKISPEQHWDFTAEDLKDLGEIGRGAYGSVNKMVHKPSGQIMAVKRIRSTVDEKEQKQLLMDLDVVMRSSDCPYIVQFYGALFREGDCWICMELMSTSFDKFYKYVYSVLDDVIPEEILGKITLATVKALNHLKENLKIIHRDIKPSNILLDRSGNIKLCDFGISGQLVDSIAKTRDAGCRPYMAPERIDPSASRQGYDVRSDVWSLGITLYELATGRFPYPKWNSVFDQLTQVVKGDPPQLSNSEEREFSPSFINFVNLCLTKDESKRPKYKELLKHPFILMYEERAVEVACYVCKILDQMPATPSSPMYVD

Regarding `CCOc1cc(N2CCC(O)CC2)ccc1Nc1ncc2c(n1)N(C)c1ccccc1C(=O)N2C`, in data set [1], the inhibition at 2 µM came out at 4.6%. In addition, the inhibition in data set [2] was 28%; in [3] it was -7.8%; in data set [4] it was -5%; in [6], 30.2%; in data set [7], 1.3%; in data set [9], -5.7%. Further, the inhibition in data set [11] came to 13.6%; in data set [12], 22.6%. Moreover, the Activity in [5] was 9.1 mg/dL. The IC50 in data set [8] and in data set [10] was over 50 µM each time.
